Reference: ChEMBL document CHEMBL1201862, “PubChem BioAssay data set” (2004)
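In this assay, cells in 96-well plates receive the compound at five concentrations for 48 hours. Endpoints are linearly interpolated between the surrounding concentrations. GI50 = concentration required for 50% inhibition of growth.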 The source made the active and inactive calls. Rule as the data show it: active = GI50 up to about 1.1 µM and inactive = higher. Where a SMILES comes first, the peptide text is derived from it. The star is where a group is joined. Boc = CC(C)(C)OC(=O)*

Experiments:
Experiment in all cases: growth of human tumour cells (NCI), 48 h
[1] = test system: 786-0
[2] = test system: A498
[3] = test system: ACHN
[4] = test system: BT-549
[5] = test system: EKVX
[6] = test system: HCC 2998
[7] = test system: HT-29
[8] = test system: K562
[9] = test system: MDA-MB-435
[10] = test system: NCI-H460
[11] = test system: NCI-H522
[12] = test system: OVCAR-4
[13] = test system: SF-268
[14] = test system: SF-295
[15] = test system: SK-MEL-2
[16] = test system: SNB-19
[17] = test system: SNB-75
[18] = test system: SW-620
[19] = test system: UACC-257
[20] = test system: UACC-62

**Q.** What does the source list for COc1ccc(NC/C=C/C(=C/COC(C)=O)OC(C)=O)cc1?
**A.** GI50 [1]: 1.18 µM (inactive); GI50 [2]: 1.39 µM (inactive); GI50 [3]: 1.73 µM (inactive); GI50 [4]: 1.59 µM (inactive); GI50 [5]: 2.03 µM (inactive); GI50 [6]: 3.03 µM (inactive); GI50 [7]: 2.19 µM (inactive); GI50 [8]: 1.85 µM (inactive); GI50 [9]: 1.73 µM (inactive); GI50 [10]: 2.08 µM (inactive); GI50 [11]: 2.72 µM (inactive); GI50 [12]: 1.82 µM (inactive); GI50 [13]: 2.52 µM (inactive); GI50 [14]: 2.12 µM (inactive); GI50 [15]: 2.28 µM (inactive); GI50 [16]: 3.27 µM (inactive); GI50 [17]: 7.23 µM (inactive); GI50 [18]: 1.69 µM (inactive); GI50 [19]: 2.24 µM (inactive); GI50 [20]: 3.82 µM (inactive)

**Q.** What does the source list for Cc1nn(C(=O)Cc2ccccc2)c2c1C(c1ccccc1[N+](=O)[O-])SC(=N)N2 (configuration not stated)?
**A.** GI50 [1]: > 100 µM (inactive); GI50 [2]: > 100 µM (inactive); GI50 [3]: > 100 µM (inactive); GI50 [4]: > 100 µM (inactive); GI50 [5]: > 100 µM (inactive); GI50 [6]: > 100 µM (inactive); GI50 [7]: > 100 µM (inactive); GI50 [8]: > 100 µM (inactive); GI50 [9]: > 100 µM (inactive); GI50 [10]: > 100 µM (inactive); GI50 [11]: > 100 µM (inactive); GI50 [13]: > 100 µM (inactive); GI50 [14]: > 100 µM (inactive); GI50 [16]: > 100 µM (inactive); GI50 [17]: 83.4 µM (inactive); GI50 [18]: > 100 µM (inactive); GI50 [19]: > 100 µM (inactive); GI50 [20]: > 100 µM (inactive)

**Q.** Which GI50 [1] does the source give for CCN(CC)CCC(=O)c1ccc(Cl)c(Cl)c1 here?
**A.** 17.5 µM (inactive)

**Q.** And the GI50 [2]?
**A.** 18.5 µM (inactive)

**Q.** What about the GI50 [3] of the same molecule?
**A.** 76.9 µM (inactive)

**Q.** And the GI50 [4]?
**A.** 21.2 µM (inactive)

**Q.** What about the GI50 [5] of the same molecule?
**A.** > 100 µM (inactive)

**Q.** And the GI50 [6]?
**A.** 43.6 µM (inactive)

**Q.** What about the GI50 [7] of the same molecule?
**A.** 32.3 µM (inactive)

**Q.** What about the GI50 [8] of the same molecule?
**A.** 24.8 µM (inactive)

**Q.** What about the GI50 [9] of the same molecule?
**A.** 17.1 µM (inactive)

**Q.** What about the GI50 [10] of the same molecule?
**A.** > 100 µM (inactive)

**Q.** What about the GI50 [11] of the same molecule?
**A.** 17.3 µM (inactive)

**Q.** What about the GI50 [12] of the same molecule?
**A.** 47.4 µM (inactive)

**Q.** What about the GI50 [13] of the same molecule?
**A.** 20.8 µM (inactive)

**Q.** And the GI50 [14]?
**A.** > 100 µM (inactive)

**Q.** What about the GI50 [16] of the same molecule?
**A.** > 100 µM (inactive)

**Q.** And the GI50 [17]?
**A.** 27.7 µM (inactive)

**Q.** And the GI50 [18]?
**A.** 19.7 µM (inactive)

**Q.** What about the GI50 [19] of the same molecule?
**A.** 46.7 µM (inactive)

**Q.** And the GI50 [20]?
**A.** 14.8 µM (inactive)

**Q.** How did the GI50 [1] turn out when COC(=O)C(Cc1c[nH]c2ccccc12)NC(=O)C(Cc1c[nH]c2ccccc12)NC(=O)C(Cc1c[nH]c2ccccc12)NC(=O)C(Cc1c[nH]c2ccccc12)NC(=O)C(Cc1c[nH]c2ccccc12)NC(=O)C(Cc1c[nH]c2ccccc12)NC(=O)C(Cc1c[nH]c2ccccc12)NC(=O)C(Cc1c[nH]c2ccccc12)NC(=O)OC(C)(C)C (configuration not stated) (Boc-WWWWWWWW-OMe; configuration not given here) was run?
**A.** > 100 µM (inactive)

**Q.** What about the GI50 [2] of the same molecule?
**A.** 20 µM (inactive)

**Q.** And the GI50 [3]?
**A.** > 100 µM (inactive)

**Q.** And the GI50 [4]?
**A.** > 100 µM (inactive)

**Q.** What about the GI50 [6] of the same molecule?
**A.** > 100 µM (inactive)

**Q.** And the GI50 [7]?
**A.** > 100 µM (inactive)

**Q.** What about the GI50 [8] of the same molecule?
**A.** 31.8 µM (inactive)

**Q.** And the GI50 [9]?
**A.** > 100 µM (inactive)

**Q.** And the GI50 [10]?
**A.** 67.6 µM (inactive)

**Q.** What about the GI50 [11] of the same molecule?
**A.** 17.4 µM (inactive)

**Q.** What about the GI50 [12] of the same molecule?
**A.** > 100 µM (inactive)

**Q.** What about the GI50 [13] of the same molecule?
**A.** > 100 µM (inactive)

**Q.** And the GI50 [15]?
**A.** 33.6 µM (inactive)

**Q.** And the GI50 [16]?
**A.** 46.2 µM (inactive)

**Q.** What about the GI50 [17] of the same molecule?
**A.** > 100 µM (inactive)

**Q.** And the GI50 [18]?
**A.** > 100 µM (inactive)

**Q.** And the GI50 [19]?
**A.** 43.5 µM (inactive)

**Q.** What about the GI50 [20] of the same molecule?
**A.** 28.5 µM (inactive)

**Q.** c1ccc2c(OCC3CO3)ccc(OCC3CO3)c2c1 (configuration not stated) was tested. Which GI50 [1] did it give?
**A.** 2.11 µM (inactive)

**Q.** What about the GI50 [2] of the same molecule?
**A.** 17 µM (inactive)

**Q.** And the GI50 [3]?
**A.** 1.89 µM (inactive)

**Q.** What about the GI50 [4] of the same molecule?
**A.** 6.49 µM (inactive)

**Q.** What about the GI50 [5] of the same molecule?
**A.** 17.4 µM (inactive)

**Q.** And the GI50 [6]?
**A.** 11.8 µM (inactive)

**Q.** What about the GI50 [7] of the same molecule?
**A.** 4.82 µM (inactive)

**Q.** What about the GI50 [8] of the same molecule?
**A.** 2 µM (inactive)

**Q.** And the GI50 [9]?
**A.** 2.44 µM (inactive)

**Q.** What about the GI50 [10] of the same molecule?
**A.** 3.42 µM (inactive)

**Q.** What about the GI50 [11] of the same molecule?
**A.** 10.4 µM (inactive)

**Q.** And the GI50 [12]?
**A.** 7.05 µM (inactive)

**Q.** And the GI50 [13]?
**A.** 0.571 µM (active)

**Q.** And the GI50 [14]?
**A.** 2.86 µM (inactive)

**Q.** What about the GI50 [16] of the same molecule?
**A.** 8.13 µM (inactive)

**Q.** And the GI50 [17]?
**A.** 14.6 µM (inactive)

**Q.** And the GI50 [18]?
**A.** 1.26 µM (inactive)

**Q.** What about the GI50 [19] of the same molecule?
**A.** 7.14 µM (inactive)

**Q.** And the GI50 [20]?
**A.** 3.06 µM (inactive)

**Q.** Which results are given for CCCSC1=N/C(=C\c2ccco2)C(=O)N1?
**A.** GI50 [1]: > 100 µM (inactive); GI50 [2]: 89.7 µM (inactive); GI50 [3]: > 100 µM (inactive); GI50 [4]: > 100 µM (inactive); GI50 [5]: 67.3 µM (inactive); GI50 [6]: > 100 µM (inactive); GI50 [7]: > 100 µM (inactive); GI50 [9]: > 100 µM (inactive); GI50 [10]: > 100 µM (inactive); GI50 [11]: > 100 µM (inactive); GI50 [12]: > 100 µM (inactive); GI50 [13]: > 100 µM (inactive); GI50 [14]: > 100 µM (inactive); GI50 [15]: > 100 µM (inactive); GI50 [16]: > 100 µM (inactive); GI50 [17]: 97.7 µM (inactive); GI50 [18]: > 100 µM (inactive); GI50 [19]: > 100 µM (inactive); GI50 [20]: > 100 µM (inactive)

**Q.** What does the source list for Cc1ccc(/N=N/c2c(O)ccc3cc(S(=O)(=O)O)cc(S(=O)(=O)O)c23)cc1?
**A.** GI50 [1]: > 100 µM (inactive); GI50 [2]: > 100 µM (inactive); GI50 [3]: > 100 µM (inactive); GI50 [4]: > 100 µM (inactive); GI50 [5]: > 100 µM (inactive); GI50 [6]: > 100 µM (inactive); GI50 [8]: > 100 µM (inactive); GI50 [9]: > 100 µM (inactive); GI50 [10]: > 100 µM (inactive); GI50 [11]: > 100 µM (inactive); GI50 [12]: > 100 µM (inactive); GI50 [13]: > 100 µM (inactive); GI50 [14]: > 100 µM (inactive); GI50 [15]: > 100 µM (inactive); GI50 [16]: > 100 µM (inactive); GI50 [17]: > 100 µM (inactive); GI50 [18]: > 100 µM (inactive); GI50 [19]: > 100 µM (inactive); GI50 [20]: > 100 µM (inactive)
